The test system of test [1] is CD3+/CD8+ T cells of PBMCs from vaccinated donors. The class given is cell-based, human. The following applies: for percentage of circulating reacting CD8+ T cells specific to the homologous TAA epitope, average: TAAs paired to non-spike epitopes; for sum of the reactivities of all subjects for the epitope pair: value of the pair viral epitope/TAA; for percentage of circulating reacting CD8+ T cells specific to the spike peptide, average: PBMCs from 7 vaccinated donors stimulated ex vivo 3 days with the Spike peptide, Dextramer loaded with the same viral peptide.

The test system of test [2] is CD3+/CD8+ T cells of PBMCs from healthy vaccinated donors. As to the kind of experiment: pMHC multimer (tetramer) T cell staining. The class given is cell-based, human. Conditions: MHC-class I tetramer staining.
Test [3] concerns PBMCs from HLA-A*02:01–positive individuals. As to the kind of experiment: IFN-γ ELISpot assay. It is filed as cell-based, human. Conditions: 10 μg/mL peptide, 3×10^5 PBMCs per well, 20 hours, 37°C; SFU per 10^6 PBMCs; mean of subjects, triplicate tests averaged.
For test [4], the system named is CD8+ T cell. The following applies: 59 Spike epitopes, different HLA alleles; cited from earlier work. From the text:
We have recently assessed T cell reactivity against 59 epitopes predicted in the Spike protein associated to different HLA alleles, covering both the S1 and S2 subunits. In particular, 11 were associated with the HLA-A*02:01 and only three were located in the S1 subunit, namely […] at position 62 and […] at position 269 in the NTD region; […] at position 512 in the RBD region.

For the sequence ALLALTSAV [reference compound], in test [1], the “percentage of circulating reacting CD8+ T cells specific to the homologous TAA epitope, average” value is given as 1.34% and the “sum of the reactivities of all subjects for the epitope pair” value (from here on “sum of the reactivities of all subjects”) is reported as > 9 % of the total circulating T cells. As for FVGEFFTDV [reference compound], the “percentage of circulating reacting CD8+ T cells specific to the homologous TAA epitope, average” value in test [1] amounted to 0.36%.

In the case of HLMSFPQSA, the “percentage of circulating reacting CD8+ T cells specific to the spike peptide, average” value in test [1] was determined as 0.8%. For KIADYNYKL [Wuhan, Alpha, Delta], the “percentage of circulating CD8+ T cells specific for the peptide, average” value in test [2] was 0,18%. Also, in test [3], the “IFN-γ ELISpot, average over subjects” value is given as 9.8 SFU. As for KLLEEWNLV, in test [1], the “sum of the reactivities of all subjects” value is listed as ~ 6 % of the total circulating T cells.

Regarding LTDEMIAQY [reference compound], the “IFN-γ ELISpot, average over subjects” value in test [3] is reported as 10.8 SFU. Regarding NYNYLYRLF [reference compound], in test [4], the “immunodominance of CD8+ T cell memory response” value is “strongest immunodominance”. In the case of RLLQETELV [reference compound], the “sum of the reactivities of all subjects” value in test [1] is listed as ~ 6 % of the total circulating T cells.

Take VLLSMQGAV: the “sum of the reactivities of all subjects” value in test [1] is given as > 9 % of the total circulating T cells.

For the sequence VLNDIFSRL, the “percentage of circulating reacting CD8+ T cells specific to the spike peptide, average” value in test [1] was 1.04%. As to YLQPRTFLL, the “percentage of circulating CD8+ T cells specific for the peptide, average” value in test [2] is reported as 1,23%. In test [3], the “IFN-γ ELISpot, average over subjects” value came to 87.9 SFU. In addition, the “immunodominance of CD8+ T cell memory response” value in test [4] was “strongest immunodominance”.

The values are drawn from PMC11211543, “Molecular mimicry of SARS-COV-2 antigens as a possible natural anti-cancer preventive immunization” (Frontiers in Immunology, 2024).
